Experimental data published in patent US5578573A, “Viral integrase inhibiting peptides” (priority 1995, dated 1996).
Residues, ends and D or L forms follow the SMILES beside them.

Biological target: T1, HIV integrase (Human immunodeficiency virus type 1 group M subtype B, UniProt P04585)
T1 construct: The HIV integrase used in these assays was expressed in E. coli; made in house; host or cells: E. coli
Experiment: biochemical
Assay type: biochemical
Details: for % Inhibition of HIV integrase activity: 50 μM peptide, results normalized to His-Cys-Lys-Phe-Trp-Trp-NH2 (SEQ ID NO: 19)
Protocol: HIV integrase activity was assayed by site-specific cleavage and integration of a 28 base pair synthetic oligonucleotide substrate representing HIV-1 U5 essentially as described by Vink et al., Nucl. Acids Res. 21:1419-1425 (1993), which is incorporated herein by reference. The HIV integrase used in these assays was expressed in E. coli and purified to near homogeneity.
Briefly, 0.2 pmol 5'-^32 P-oligonucleotide substrate and 2 μM HIV integrase were incubated at 37° C. for 1 hr in 10 μl assay buffer (10 mM MOPS, pH 7.2, 50 mM NaCl, 3 mM MnCl2, 0.05 mM EDTA, 0.1 mM β-mercaptoethanol, 4% glycerol). Control integrase activity was determined in the absence of any peptide. The activity of a peptide to be tested was examined by adding the peptide to the appropriate concentration in a 2 μl volume. Reactions were stopped by addition of 10 μl formamide loading dye (95% formamide, 20 mM EDTA, 0.05% bromophenol blue, 0.05% xylene cyanol) and incubation at 80° C. for 3 min. A 5 μl aliquot of the sample was separated by electrophoresis on a 12% denaturing polyacrylamide gel. Migration was detected by autoradiography and integrase activity was quantified by densitometry. Inhibition of integrase activity by a peptide corresponded with the disappearance of the cleavage and integration products.

SMILES	IC50	% Inhibition of HIV integrase activity
C[C@H](N)C(=O)N[C@@H](CS)C(=O)N[C@@H](CCCCN)C(=O)N[C@@H](Cc1ccccc1)C(=O)N[C@@H](Cc1c[nH]c2ccccc12)C(=O)N[C@@H](Cc1c[nH]c2ccccc12)C(N)=O [compound 22] (H-ACKFWW-NH2)	51 µM	–
NCCCC[C@H](NC(=O)[C@H](CS)NC(=O)[C@@H](N)Cc1c[nH]cn1)C(=O)N[C@@H](Cc1ccccc1)C(=O)N[C@@H](Cc1c[nH]c2ccccc12)C(=O)N[C@@H](Cc1ccccc1)C(N)=O [compound 15] (H-HCKFWF-NH2)	5 µM	95%
NCCCC[C@H](NC(=O)[C@H](CS)NC(=O)[C@@H](N)Cc1c[nH]cn1)C(=O)N[C@@H](Cc1ccccc1)C(=O)N[C@@H](Cc1c[nH]c2ccccc12)C(=O)N[C@@H](CS)C(N)=O [compound 6] (H-HCKFWC-NH2)	–	30%
NCCCC[C@H](NC(=O)[C@H](CS)NC(=O)[C@@H](N)Cc1c[nH]cn1)C(=O)N[C@@H](Cc1ccccc1)C(=O)N[C@@H](Cc1c[nH]c2ccccc12)C(=O)N[C@@H](CC(N)=O)C(N)=O [compound 4] (H-HCKFWN-NH2)	–	30%
NCCCC[C@H](NC(=O)[C@H](Cc1c[nH]c2ccccc12)NC(=O)[C@H](Cc1ccccc1)NC(=O)[C@H](CCCCN)NC(=O)[C@H](CS)NC(=O)[C@@H](N)Cc1c[nH]cn1)C(N)=O [compound 13] (H-HCKFWK-NH2)	–	34%
CC(C)C[C@H](NC(=O)[C@H](Cc1c[nH]c2ccccc12)NC(=O)[C@H](Cc1ccccc1)NC(=O)[C@H](CCCCN)NC(=O)[C@H](CS)NC(=O)[C@@H](N)Cc1c[nH]cn1)C(N)=O [compound 12] (H-HCKFWL-NH2)	–	8%
CC[C@H](C)[C@H](NC(=O)[C@H](Cc1c[nH]c2ccccc12)NC(=O)[C@H](Cc1ccccc1)NC(=O)[C@H](CCCCN)NC(=O)[C@H](CS)NC(=O)[C@@H](N)Cc1c[nH]cn1)C(N)=O [compound 11] (H-HCKFWI-NH2)	4 µM	96%
NCCCC[C@H](NC(=O)[C@H](CS)NC(=O)[C@@H](N)Cc1c[nH]cn1)C(=O)N[C@@H](Cc1ccccc1)C(=O)N[C@@H](Cc1c[nH]c2ccccc12)C(=O)N[C@@H](Cc1c[nH]cn1)C(N)=O [compound 10] (H-HCKFWH-NH2)	–	72%
NCCCC[C@H](NC(=O)[C@H](CS)NC(=O)[C@@H](N)Cc1c[nH]cn1)C(=O)N[C@@H](Cc1ccccc1)C(=O)N[C@@H](Cc1c[nH]c2ccccc12)C(=O)N1CCC[C@H]1C(N)=O [compound 16] (H-HCKFWP-NH2)	–	45%
NCCCC[C@H](NC(=O)[C@H](CS)NC(=O)[C@@H](N)Cc1c[nH]cn1)C(=O)N[C@@H](Cc1ccccc1)C(=O)N[C@@H](Cc1c[nH]c2ccccc12)C(=O)N[C@@H](Cc1ccc(O)cc1)C(N)=O [compound 20] (H-HCKFWY-NH2)	–	75%
NCCCC[C@H](NC(=O)[C@H](CS)NC(=O)[C@@H](N)Cc1c[nH]cn1)C(=O)N[C@@H](Cc1ccccc1)C(=O)N[C@@H](Cc1c[nH]c2ccccc12)C(=O)N[C@@H](CCC(=O)O)C(N)=O [compound 7] (H-HCKFWE-NH2)	–	28%
CC(C)[C@H](NC(=O)[C@H](Cc1c[nH]c2ccccc12)NC(=O)[C@H](Cc1ccccc1)NC(=O)[C@H](CCCCN)NC(=O)[C@H](CS)NC(=O)[C@@H](N)Cc1c[nH]cn1)C(N)=O [compound 21] (H-HCKFWV-NH2)	–	85%
C[C@H](NC(=O)[C@@H](N)Cc1c[nH]cn1)C(=O)N[C@@H](CCCCN)C(=O)N[C@@H](Cc1ccccc1)C(=O)N[C@@H](Cc1c[nH]c2ccccc12)C(=O)N[C@@H](Cc1c[nH]c2ccccc12)C(N)=O [compound 23] (H-HAKFWW-NH2)	30 µM	–
CSCC[C@H](NC(=O)[C@H](Cc1c[nH]c2ccccc12)NC(=O)[C@H](Cc1ccccc1)NC(=O)[C@H](CCCCN)NC(=O)[C@H](CS)NC(=O)[C@@H](N)Cc1c[nH]cn1)C(N)=O [compound 14] (H-HCKFWM-NH2)	–	42%
NCCCC[C@H](NC(=O)[C@H](CS)NC(=O)[C@@H](N)Cc1c[nH]cn1)C(=O)N[C@@H](Cc1ccccc1)C(=O)N[C@@H](Cc1c[nH]c2ccccc12)C(=O)N[C@@H](CCC(N)=O)C(N)=O [compound 8] (H-HCKFWQ-NH2)	–	8%
NCCCC[C@H](NC(=O)[C@H](CS)NC(=O)[C@@H](N)Cc1c[nH]cn1)C(=O)N[C@@H](Cc1ccccc1)C(=O)N[C@@H](Cc1c[nH]c2ccccc12)C(=O)N[C@@H](CO)C(N)=O [compound 17] (H-HCKFWS-NH2)	–	40%
N=C(N)NCCC[C@H](NC(=O)[C@H](Cc1c[nH]c2ccccc12)NC(=O)[C@H](Cc1ccccc1)NC(=O)[C@H](CCCCN)NC(=O)[C@H](CS)NC(=O)[C@@H](N)Cc1c[nH]cn1)C(N)=O [compound 3] (H-HCKFWR-NH2)	8 µM	88%
C[C@H](NC(=O)[C@H](CS)NC(=O)[C@@H](N)Cc1c[nH]cn1)C(=O)N[C@@H](Cc1ccccc1)C(=O)N[C@@H](Cc1c[nH]c2ccccc12)C(=O)N[C@@H](Cc1c[nH]c2ccccc12)C(N)=O [compound 24] (H-HCAFWW-NH2)	49 µM	–
C[C@H](NC(=O)[C@H](Cc1ccccc1)NC(=O)[C@H](CCCCN)NC(=O)[C@H](CS)NC(=O)[C@@H](N)Cc1c[nH]cn1)C(=O)N[C@@H](Cc1c[nH]c2ccccc12)C(N)=O [compound 26] (H-HCKFAW-NH2)	150 µM	–
NCCCC[C@H](NC(=O)[C@H](CS)NC(=O)[C@@H](N)Cc1c[nH]cn1)C(=O)N[C@@H](Cc1ccccc1)C(=O)N[C@@H](Cc1c[nH]c2ccccc12)C(=O)N[C@@H](CC(=O)O)C(N)=O [compound 5] (H-HCKFWD-NH2)	–	18%
NCCCC[C@H](NC(=O)[C@H](CS)NC(=O)[C@@H](N)Cc1c[nH]cn1)C(=O)N[C@@H](Cc1ccccc1)C(=O)N[C@@H](Cc1c[nH]c2ccccc12)C(=O)NCC(N)=O [compound 9] (H-HCKFWG-NH2)	–	82%
C[C@@H](O)[C@H](NC(=O)[C@H](Cc1c[nH]c2ccccc12)NC(=O)[C@H](Cc1ccccc1)NC(=O)[C@H](CCCCN)NC(=O)[C@H](CS)NC(=O)[C@@H](N)Cc1c[nH]cn1)C(N)=O [compound 18] (H-HCKFWT-NH2)	–	8%
NCCCC[C@H](NC(=O)[C@H](CS)NC(=O)[C@@H](N)Cc1c[nH]cn1)C(=O)N[C@@H](Cc1ccccc1)C(=O)N[C@@H](Cc1c[nH]c2ccccc12)C(=O)N[C@@H](Cc1c[nH]c2ccccc12)C(N)=O [compound 19] (H-HCKFWW-NH2)	–	100%
NCCCC[C@H](NC(=O)[C@H](CS)NC(=O)[C@@H](N)Cc1cnc[nH]1)C(=O)N[C@@H](Cc1ccccc1)C(=O)N[C@@H](Cc1c[nH]c2ccccc12)C(=O)N[C@@H](Cc1c[nH]c2ccccc12)C(N)=O [compound 19] (H-HCKFWW-NH2)	2 µM	–
C[C@H](NC(=O)[C@H](Cc1c[nH]c2ccccc12)NC(=O)[C@H](Cc1ccccc1)NC(=O)[C@H](CCCCN)NC(=O)[C@H](CS)NC(=O)[C@@H](N)Cc1c[nH]cn1)C(N)=O [compound 2] (H-HCKFWA-NH2)	–	2%
C[C@H](NC(=O)[C@H](CCCCN)NC(=O)[C@H](CS)NC(=O)[C@@H](N)Cc1c[nH]cn1)C(=O)N[C@@H](Cc1c[nH]c2ccccc12)C(=O)N[C@@H](Cc1c[nH]c2ccccc12)C(N)=O [compound 25] (H-HCKAWW-NH2)	8 µM	–
C[C@H](NC(=O)[C@H](Cc1c[nH]c2ccccc12)NC(=O)[C@H](Cc1ccccc1)NC(=O)[C@H](CCCCN)NC(=O)[C@H](CS)NC(=O)[C@@H](N)Cc1c[nH]cn1)C(N)=O [compound 27] (H-HCKFWA-NH2)	210 µM	–
